Data from publication PMC3814572, “Identification of Novel Compounds Inhibiting Chikungunya Virus-Induced Cell Death by High Throughput Screening of a Kinase Inhibitor Library” (PLoS Neglected Tropical Diseases, 2013).
Like-named read-outs stand apart in the source and are kept apart here.

Legend:
CHIKV-118-GFP [1] = assay: Image-based high-content assay of CHIKV-118-GFP infectivity in HuH-7; type: cell-based, Chikungunya virus; settings: for percentage of infected cells / inhibition at 20 µM / inhibition at 50 µM: 24 hrs; for observed apoptotic blebs associated with CHIKV infection: 24 hpi; for inhibition at 20 µM / inhibition at 50 µM: Chikungunya virus, read-out: inhibition of CHIKV-118-GFP infection
CHIKV-118-GFP [2] = assay: Resazurin reduction assay, dose-response of inhibition of CHIKV-associated cell death in HuH-7; settings: for EC50: Chikungunya virus, Huh-7, 72 h; for SI (CC50/EC50): minimum SI based on the highest concentration of compound tested
CHIKV-118-GFP [3] = assay: Virus yield reduction assay (plaque assay of culture medium); settings: 24 hrs, culture supernatant of HuH-7
[4] = Resazurin reduction assay, toxicity in MOCK-infected (non-infected) HuH-7; settings: human
CHIKV-118-GFP [5] = assay: Microneutralization assay (protection against CHIKV-induced CPE); settings: 50 pfu CHIKV-118-GFP, 72 hrs, HuH-7
HuH-7 cells [6] = settings: human
in vitro = settings: human
Huh-7.5 cells = settings: 10 µM, Huh-7.5, 72 hrs; cited from earlier work
DENV2 (BR DEN2 01-01) = settings: 10 µM, Huh-7.5, 72 hrs; cited from earlier work
HuH-7 cells [7] = assay: Resazurin reduction assay, toxicity in MOCK-infected (non-infected) HuH-7; settings: HuH-7
HuH-7 cells [8] = assay: Cell number by DAPI-stained nuclei imaging in HuH-7; settings: 50 µM
[9] = read-out: EC50 (concentration showing 50% inhibition relative to the maximum inhibition achieved)

Structure (SMILES) | percentage of infected cells (CHIKV-118-GFP [1]; 20 µM) [%] | observed apoptotic blebs associated with CHIKV infection (CHIKV-118-GFP [1]) | EC50 (CHIKV-118-GFP [2]; [9]) [µM] | SI (CC50/EC50) (CHIKV-118-GFP [2]) | CC50 at 72 h [4] [µM] | EC50 (CHIKV-118-GFP [2]) [µM] | also measured
COc1cccc(Nc2cc3c(cn2)cc(-c2cccc(C(F)(F)F)c2)n3C)c1 [CND0545] | 71.7 | significantly lower | 5.6 | >8.9 | > 50 |  | inhibition at 20 µM (CHIKV-118-GFP [1]; 20 µM): 28.3%; log titer reduction vs DMSO vehicle control (CHIKV-118-GFP [3]; 20 µM): 2.01 log; lowest concentration that inhibited CHIKV-induced CPE (clearing of cell monolayer) (CHIKV-118-GFP [5]): 25 µM
COc1ccc(-c2ccc(C(=O)NC(C)C)c3occc23)c(C)c1 [CND0335] | 90.9 |  | 3.3 | >15 | > 50 |  | 
CO/C1=C\C(C)=C\[C@@H](C)[C@@H](O)[C@@H](C)C/C(C)=C/C=C/[C@H](OC)[C@@H]([C@@H](C)[C@@H](O)[C@H](C)[C@@]2(O)C[C@@H](O)[C@H](C)[C@@H](C(C)C)O2)OC1=O [BAF, Bafilomycin A1] |  |  |  |  |  | 0.056 | CC50 (HuH-7 cells [6]): 0.237 µM; CC50 (in vitro): 0.09 µM
CC(C)c1ccc(NC(=O)c2csc(C(O)C(C)C)n2)cc1 (stereo not drawn) [CND3514] | 92.2 |  | 2.2 | >22.7 | > 50 |  | toxicity in DENV2 screening (cell number) (Huh-7.5 cells): 39.37%; inhibition against DENV2 (DENV2 (BR DEN2 01-01)): 67.87%
COc1c(C)c2c(c(O)c1C/C=C(\C)CCC(=O)O)C(=O)OC2 [MPA, Mycophenolic acid, reference compound] |  | significantly lower |  |  | > 100 | 1.6 | percentage of infected cells (CHIKV-118-GFP [1]; 50 µM): 7.34%; inhibition at 50 µM (CHIKV-118-GFP [1]; 50 µM): > 92%; cytotoxicity at the highest concentration tested (HuH-7 cells [7]; 100 µM): no observable cytotoxicity
CN(C)CCCN1c2ccccc2Sc2ccc(Cl)cc21 [CPZ, Chlorpromazine] |  |  |  |  |  |  | reduction of cell number (HuH-7 cells [8]; 24 hrs): 86%; reduction of cell number (HuH-7 cells [8]; 48 hrs): > 99.9%; reduction of cell number (HuH-7 cells [8]; 72 hrs): > 99.9%; reduction of cell number (HuH-7 cells [8]; 96 hrs): > 99.9%; fluorescence readout after resazurin treatment (HuH-7 cells [7]; 50 µM, 72 hpi): 240,842±14,730 RFU
CCN(CC)CCCC(C)Nc1ccnc2cc(Cl)ccc12 (stereo not drawn) [CQ, Chloroquine, reference compound] |  | still prominent |  |  | 90 | 29 | percentage of infected cells (CHIKV-118-GFP [1]; 50 µM): 24.4%; inhibition at 50 µM (CHIKV-118-GFP [1]; 50 µM): 75.6%; log titer reduction vs DMSO vehicle control (CHIKV-118-GFP [3]; 50 µM): 1.88 log
COc1ccc(-c2coc3c(C(=O)Nc4cccnc4)cccc23)c(C)c1 [CND0366] | 94.4 |  | 7.1 | >7.0 | > 50 |  | 
COc1ccc(-c2coc3c(C(=O)NC(C)C)cccc23)c(C)c1 [CND0415] | 96.4 |  | 6.2 | >8.1 | > 50 |  | 
COc1ccc(-c2ccc(C(=O)Nc3ccc(C(C)C)cc3)c3occc23)c(C)c1 [CND0364] | 80.3 | significantly lower | 6.2 | >8.1 | > 50 |  | inhibition at 20 µM (CHIKV-118-GFP [1]; 20 µM): 19.7%; log titer reduction vs DMSO vehicle control (CHIKV-118-GFP [3]; 20 µM): 1.69 log; lowest concentration that inhibited CHIKV-induced CPE (clearing of cell monolayer) (CHIKV-118-GFP [5]): 12.5 µM
